The record followed here is PubChem BioAssay (NCI).

Some test systems named below: CAKI-1 renal; HOP-62 NSCLC; OVCAR-5 ovarian; SK-OV-3 ovarian; HS 578T breast; LOX IMVI melanoma; NCI/ADR-RES ovarian; U251 CNS; SF-268 CNS; HCT-116 colon.
Holding throughout (test): NCI-60 cell line screen, 48 h

Where “and” joins values, the source holds several entries; their conditions need not be identical. Equal values may be shown once.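 The compound was tested at five concentrations on cells cultured in 96-well plates, with a 48-hour exposure period. At the GI50, growth is halved. TGI: total growth inhibition.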

Turning to `COc1ccc2c(c1)CCc1cc(OC)ccc1/[N+]([O-])=[N+]\2[O-]`, the TGI was 34 µM in the assay on CAKI-1 renal; 52.8 µM in the assay with HOP-62 NSCLC; 52.7 µM in the assay on OVCAR-5 ovarian; 35.6 µM in the assay on SK-OV-3 ovarian; over 59.8 µM in the assay on HS 578T breast; 42.7 µM with LOX IMVI melanoma. In addition, the TGI is over 62 µM with NCI/ADR-RES ovarian, 38.6 µM in the assay with U251 CNS and 32.9 µM in the assay with SF-268 CNS.

Regarding `CC[C@H](C)[C@H](NC(=O)[C@H]1CCCCN1C)C(=O)N(C)[C@H](C[C@@H](OC(C)=O)c1cccc(C(=O)N[C@@H](Cc2ccccc2)C[C@H](C)C(=O)O)n1)C(C)C`, the GI50 is 0.00275 µM and 0.0025 µM in the assay with HOP-62 NSCLC; 0.00348 µM and 0.0025 µM in the assay on SK-OV-3 ovarian; 0.00225 µM and 0.0025 µM with HCT-116 colon; 0.002 µM and 0.0025 µM with HS 578T breast; 0.00168 µM and 0.0025 µM in the assay with LOX IMVI melanoma; 0.0584 µM and 0.00946 µM in the assay on NCI/ADR-RES ovarian. Further, the GI50 is 0.000744 µM and 0.0025 µM in the assay with U251 CNS; 0.00435 µM and 0.0025 µM with SF-268 CNS. Moreover, the TGI in the assay on HOP-62 NSCLC is over 25 µM; in the assay on OVCAR-5 ovarian, over 25 µM; in the assay with SK-OV-3 ovarian it was over 25 µM; in the assay with HCT-116 colon, 4.16 µM; in the assay with HS 578T breast, over 25 µM; in the assay on LOX IMVI melanoma, over 25 µM. The TGI in the assay on NCI/ADR-RES ovarian, in the assay on U251 CNS and with SF-268 CNS was over 25 µM throughout.

In the case of `CCCCCCCCCCCCN=C(N)c1ccc(N2CCN(c3ccc(C(N)=NCCCCCCCCCCCC)cc3)CC2)cc1`, the GI50 in the assay with CAKI-1 renal was 32.3 µM; in the assay on HOP-62 NSCLC it was 6.96 µM; in the assay with OVCAR-5 ovarian, 7.16 µM; in the assay with SK-OV-3 ovarian it was 19.5 µM; in the assay on HCT-116 colon, 6.9 µM; with LOX IMVI melanoma, 12 µM. Besides, the GI50 with NCI/ADR-RES ovarian is 33.3 µM; in the assay on U251 CNS, 11.3 µM; with SF-268 CNS it was 9.84 µM. Also, the TGI with CAKI-1 renal is over 50 µM; in the assay with HOP-62 NSCLC, 14.6 µM; in the assay on OVCAR-5 ovarian, 14.3 µM; in the assay on SK-OV-3 ovarian it was 34.1 µM; in the assay on HCT-116 colon, 13.8 µM; with LOX IMVI melanoma it was 23 µM. In addition, the TGI in the assay with NCI/ADR-RES ovarian is over 50 µM; in the assay with U251 CNS, 24.9 µM; in the assay with SF-268 CNS, 21.1 µM.

Take `Clc1cccc(CNc2c3ccccc3nc3ccccc23)c1`: the GI50 with CAKI-1 renal is 1.67 µM; with HOP-62 NSCLC, 2.77 µM; with OVCAR-5 ovarian, 2.06 µM; with SK-OV-3 ovarian, 3.12 µM; with HCT-116 colon, 1.35 µM; in the assay with LOX IMVI melanoma, 1.53 µM. Besides, the GI50 with NCI/ADR-RES ovarian was 1.8 µM; with U251 CNS, 2 µM; in the assay with SF-268 CNS, 2.54 µM. Besides, the TGI in the assay on CAKI-1 renal was found to be 4.82 µM; in the assay on HOP-62 NSCLC, 12.4 µM; in the assay on OVCAR-5 ovarian, 6.54 µM; in the assay on SK-OV-3 ovarian, 13.2 µM; in the assay on HCT-116 colon it was 3.41 µM; in the assay on LOX IMVI melanoma it was 3.08 µM. Also, the TGI in the assay on NCI/ADR-RES ovarian is 4.97 µM; in the assay with U251 CNS, 4.56 µM; in the assay on SF-268 CNS it was 7.88 µM.

As for `CCOC(=O)c1c(C)nc2c(c1N)/C(=C/c1ccccn1)C(=O)N2Cc1ccccc1`, the GI50 with OVCAR-5 ovarian was 1.04 µM; in the assay with SK-OV-3 ovarian, 3.08 µM; in the assay with HCT-116 colon it was 0.847 µM; with HS 578T breast it was 2.82 µM; in the assay on LOX IMVI melanoma, 0.83 µM; in the assay on U251 CNS, 0.948 µM. Moreover, the GI50 in the assay on SF-268 CNS was 1.41 µM. Also, the TGI was 2.68 µM with OVCAR-5 ovarian; over 50 µM in the assay with SK-OV-3 ovarian; 1.62 µM in the assay with HCT-116 colon; over 50 µM with HS 578T breast; 1.54 µM in the assay on LOX IMVI melanoma; 1.72 µM with U251 CNS. This molecule registered a TGI in the assay with SF-268 CNS of over 50 µM.

Take `COc1ccc2c(c1)/C(=C\c1c(-c3cc(OC)ccc3OC)nc3sccn13)C(=O)N2`: the GI50 is 3.82 µM with CAKI-1 renal; 1.75 µM with HOP-62 NSCLC; 6.65 µM and 1.73 µM in the assay on OVCAR-5 ovarian; 9.29 µM in the assay with SK-OV-3 ovarian; 1.42 µM with HCT-116 colon; 5.22 µM in the assay on LOX IMVI melanoma. Besides, the GI50 is 4.83 µM and 1.7 µM with NCI/ADR-RES ovarian; 9.76 µM with U251 CNS; 2.08 µM with SF-268 CNS. In addition, the TGI in the assay with CAKI-1 renal amounted to 13.8 µM; in the assay with HOP-62 NSCLC, 3.29 µM; in the assay on OVCAR-5 ovarian, 3.1 µM; in the assay on SK-OV-3 ovarian it was 24.6 µM; in the assay on HCT-116 colon, 3.48 µM; in the assay with LOX IMVI melanoma, 21.5 µM. The TGI in the assay on NCI/ADR-RES ovarian was found to be 3.39 µM; with U251 CNS it was 24.5 µM; in the assay with SF-268 CNS, 4.32 µM.

Turning to `COc1cc2c3c(n(CCCNCCCNCCN)c(=O)c2cc1OC)-c1cc2c(cc1C3=O)OCO2`, the GI50 in the assay on CAKI-1 renal was 87.8 µM; in the assay on SK-OV-3 ovarian, over 100 µM; in the assay on HCT-116 colon it was 23 µM; with HS 578T breast, 48.7 µM; with LOX IMVI melanoma it was 13.1 µM; in the assay on U251 CNS, 18 µM. The GI50 in the assay with SF-268 CNS was over 100 µM. For the same molecule, the TGI is over 100 µM in the assay with CAKI-1 renal; over 100 µM in the assay on SK-OV-3 ovarian; 57.9 µM in the assay on HCT-116 colon; over 100 µM in the assay on HS 578T breast; 36.4 µM in the assay on LOX IMVI melanoma; 44.2 µM in the assay on U251 CNS. In the assay with SF-268 CNS, this molecule came in with a TGI of over 100 µM.
